Results as given in patent US12173088B2, “Anti-microbial peptides” (priority 2018, dated 2024).
Peptide text beside a SMILES is read from it.

Legend:
E. coli ATCC 25922 = type: cell-based, Escherichia coli; details: ATCC 25922
Outline: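 Peptides, serially diluted two-fold, were incubated overnight at 37 °C with E. coli ATCC 25922 from log-phase cultures adjusted to OD600 0.001. Turbidity at 630 nm served as the read-out in this broth microdilution format.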

in vivo = experiment: in vivo
Protocol: The efficacy of the two peptides was also investigated in non-neutropenic mice against S. aureus USA300. A higher bacterial inoculum at 2×10^8 CFU per mouse was used. […] To evaluate the peptide pharmacokinetics (Chhonker, et al. (2018) Biomed. Chromatogr. e4389), the plasma clearance rate of horine after intravenous injection of 10 mg/kg into BALB/c mice was followed.

| Structure (SMILES) | MIC EC (E. coli ATCC 25922) (E. coli ATCC 25922) [µM] | Time to become undetectable in plasma (in vivo; 10 mg/kg i.v.) [h] | level at 5 min (in vivo; BALB/c, mouse, plasma, iv, 10 mg/kg) [ng/mL] |
| --- | --- | --- | --- |
| CC(C)C[C@H](NC(=O)[C@H](CC(C)C)NC(=O)[C@H](CCCCN)NC(=O)[C@H](CC(C)C)NC(=O)CNC(=O)[C@H](CC(C)C)NC(=O)[C@H](CO)NC(=O)[C@H](CC(C)C)NC(=O)[C@H](CC(C)C)NC(=O)[C@H](CC(C)C)NC(=O)[C@H](CCCCN)NC(=O)[C@H](CC(C)C)NC(=O)CN)C(N)=O [DFT561, GLKLLLSLGLKLL] (H-GLKLLLSLGLKLL-NH2; N-terminus and C-terminus assumed) | >25 | – | – |
| CC(C)C[C@H](NC(=O)[C@H](Cc1c[nH]c2ccccc12)NC(=O)[C@H](Cc1c[nH]c2ccccc12)NC(=O)[C@@H](N)Cc1c[nH]c2ccccc12)C(=O)N[C@@H](CCCNC(=N)N)C(=O)N[C@@H](CCCNC(=N)N)C(=O)N[C@@H](CCCNC(=N)N)C(=O)N[C@@H](Cc1c[nH]c2ccccc12)C(N)=O [Horine, WWWLRRRW] (H-WWWLRRRW-NH2; N-terminus and C-terminus assumed) | – | ≤ 1 | 266 |
